From US10307407B2, “9H-pyrimido [4,5-B] indoles as BET bromodomain inhibitors” (THE REGENTS OF THE UNIVERSITY OF MICHIGAN, priority 2015, dated 2019)
pIC50: −log10 of the molar value.

Assays:
recombinant BRD4 BD1 = target: T1, recombinant BRD4 BD1 (Homo sapiens, UniProt O60885); assay: Competitive fluorescence-polarization (FP) binding assay, BRD4 BD1; settings: FAM labeled probe 1.5 nM, protein 10 nM, pH 6.5
T1 construct: recombinant BRD4 BD1 and BRD4 BD2 proteins
Protocol: (§1) Fluorescence Polarization (FP) competitive binding studies were carried out using a FAM labeled fluorescent probe (ZBA248 or BRD-1F) to determine binding affinities of representative Compounds of the Disclosure for recombinant BRD4 BD1 and BRD4 BD2 proteins. For example, equilibrium dissociation constants (Kd) values of ZBA248 to these six proteins were determined from protein saturation experiments by monitoring the total fluorescence polarization of mixtures composed with the fluorescent probe at a fixed concentration and proteins with increasing concentrations up to full saturation. Serial dilutions of testing protein were mixed with ZBA248 to a final volume of 200 μl in the assay buffer. In order to achieve large dynamic rages, particularly for BD1 bromodomains, 100 mM phosphate buffer (pH=6.5, 0.01% Triton X-100 (Sigma, 282103) being added right before assays) was used as the assay buffer. Final ZBA248 concentration was 1.5 nM for all proteins. Plates were incubated at room temperature for 30 minutes with gentle shaking to assure equilibrium. FP values in millipolarization units (mP) were measured using the Infinite M-1000 plate reader (Tecan U.S., Research Triangle Park, N.C.) in Microfluor 1 96-well, black, round-bottom plates (Thermo Scientific, Waltham, Mass.) at an excitation wavelength of 485 nm and an emission wavelength of 530 nm. Kd values of ZBA248 were calculated by fitting the sigmoidal dose-dependent FP increases as a function of protein concentrations using Graphpad Prism 6.0 software (Graphpad Software, San Diego, Calif.).
(§2) The IC50 and Ki values of representative Compounds of the Disclosure were determined in a competitive binding experiment as described above. Mixtures of 10 μl of the tested compounds in assay buffer with 40% Ethylene Glycol and 190 μl of preincubated protein/probe complex solution in the assay buffer (100 mM potassium phosphate, pH 6.5, 0.01% Triton X-100) were added into assay plates which were incubated at room temperature for 30 minutes with gentle shaking. Final concentrations of proteins were 10 and 6 nM in assays for BD1 and BD2 of BRD4, respectively. Final probe concentration is 1.5 nM in all assays. Negative controls containing protein/probe complex only (equivalent to 0% inhibition), and positive controls containing only free probes (equivalent to 100% inhibition), were included in each assay plate. FP values were measured as described above. IC50 values were determined by nonlinear regression fitting of the competition curves. Instead of being calculated from IC50 values as described before, Ki values of competitive inhibitors were obtained directly by nonlinear regression fitting as well, based upon the Kd values of the probe to different proteins, and concentrations of the proteins and probes in the competitive assays (Wang, FEBS Lett. 360; 111 (1995); Zhang et al., Analytical Biochemistry, 331; 138 (2004)).
(§3) Binding affinities of representative Compounds of the Disclosure to BRD4 BD1 and BRD4 BD2 proteins in competitive, fluorescence-polarization assays are presented in Table 2.

recombinant BRD4 BD2 = target: T2, recombinant BRD4 BD2 (Homo sapiens, UniProt O60885); assay: Competitive fluorescence-polarization (FP) binding assay, BRD4 BD2; settings: FAM labeled probe 1.5 nM, protein 6 nM, pH 6.5
T2 construct: recombinant BRD4 BD1 and BRD4 BD2 proteins
Protocol: as §1, §2, §3

MDA-MB-231 cells = assay: Cell growth inhibition, 4-day proliferation assay (WST), MDA-MB-231; format: cell-based; settings: Homo sapiens, MDA-MB-231, 96 h, breast cancer cell line, 4 days treatment
Protocol: (§4) The effect of representative Compounds of the Disclosure on cell viability was determined in a 4-day proliferation assay. Cells were maintained in the appropriate culture medium with 10% FBS at 37° C. and an atmosphere of 5% CO2. All the cell lines were used within three months of thawing fresh vials.
(§5) Cells were seeded in 96-well flat bottom (Corning COSTAR, Corning, NY, cat#3595) or white opaque cell culture plates (BD Falcon, cat#353296) at a density of 3,000-10,000 cells/well in 75 μl of culture medium. Compounds were serially diluted in the appropriate medium, and 75 μl of the diluted compounds were added to the appropriate wells of the cell plate. After the addition of compounds, the cells were incubated at 37° C. in an atmosphere of 5% CO2 for 4 days. Cell viability was determined using the CellTiter-Glo® Luminescent Cell Viability Assay Kit (Promega, Madison, Wis.) for RS4-11 and MV4-11 cells and WST (2-(2-methoxy-4-nitrophenyl)-3-(4-nitrophenyl)-5-(2,4-disulfophenyl)-2H-tetrazolium, monosodium salt) Cell Counting-8 Kit (Dojindo Molecular Technologies, Inc., Rockville, Md.) for MDA-MB-231 cells according to the manufacturers' instructions.
For WST assay (MDA-MB-231 cells), WST-8 reagent was added to each well at a final concentration of 10% (v/v), and then the plates were incubated at 37° C. for 1-2 hours for color development. The absorbance was measured at 450 nm using a SPECTRAmax PLUS plate reader (Molecular Devices, Sunnyvale, Calif.). The readings were normalized to the DMSO-treated cells and the half maximal inhibitory concentration (IC50) was calculated by nonlinear regression (four parameters sigmoid fitted with variable slope, least squares fit, and no constraint) analysis using the GraphPad Prism 5 software (GraphPad Software, La Jolla, Calif.).
(§6) Cell growth inhibition of representative Compounds of the Disclosure in representative breast cancer (MDA-MB-231), acute leukemia (MV4-11), and prostate cancer cell lines (LNCaP), as determined by a WST assay, are presented in Table 3. Cells were treated with each inhibitor for 4 days.

MV4-11 cells = assay: Cell growth inhibition, 4-day proliferation assay, MV4-11; format: cell-based; settings: Homo sapiens, MV4-11, 96 h, acute leukemia cell line, 4 days treatment
Protocol: as §4, §5
For CellTiter-Glo assay (RS4-11 and MV4-11 cells), 100 μl of CellTiter-Glo® Reagent was added to each well, and then the plates were incubated at room temperature for 10-20 minutes. The luminescent signal was measured using a Tecan Infinite M1000 multimode microplate reader (Tecan, Morrisville, N.C.). The readings were normalized to the DMSO-treated cells and the IC50 was calculated by nonlinear regression (four parameters sigmoid fitted with variable slope, least squares fit, and no constraint) analysis using the GraphPad Prism 5 software.
as §6

LNCaP cells = assay: Cell growth inhibition, 4-day proliferation assay, LNCaP; format: cell-based; settings: Homo sapiens, 96 h, prostate cancer cell line, 4 days treatment
Protocol: as §4, §5, §6

Q: Which results are given for `CCn1nc(C2CC2)cc1Nc1nc(COC)nc2[nH]c3cc(-c4c(C)noc4C)c(OC)cc3c12` [Cpd. No. 5, N-(3-cyclopropyl-1-ethyl-1H-pyrazol-5-yl)-7-(3,5-dimethylisoxazol-4-yl)-6-methoxy-2-(methoxymethyl)-9H-pyrimido[4,5-b]indol-4-amine]?
A: pIC50 (recombinant BRD4 BD1): 8.26; pIC50 (recombinant BRD4 BD2): 8.62; pIC50 (MDA-MB-231 cells): 7.89; pIC50 (MV4-11 cells): 8.52; pIC50 (LNCaP cells): 8.52
